{
  "source": "patent US20240285615A1",
  "about": "“MEDICAMENTS COMPRISING GLYCOSIDASE INHIBITORS” (priority 2021, published 2024)",
  "key": {"[1]": {"assay": "Compatibility studies and short-term stability studies of drug substance with excipients", "assay_type": "physicochemical", "excerpt": "Compound (I) is a drug substance with suitable physical, biopharmaceutical, and chemical characteristics for development of an immediate release capsule formulation. […] The blend powder to be filled into the capsules contains common excipients: microcrystalline cellulose, croscarmellose sodium, colloidal silicon dioxide and magnesium stearate. All ingredients were used in concentrations typical for solid oral formulations. The selection of excipients, for the capsule powder, was based on compatibility studies and short-term stability studies. […] The final DP contains the following excipients for the tablet core: microcrystalline cellulose, povidone, croscarmellose sodium, copovidone, silica colloidal anhydrous and sodium stearyl fumarate. A water-based film coat made from hypromellose, macrogol, titanium dioxide and iron oxide was sprayed onto the core tablets. All ingredients were used in quantities typical for oral solid formulations. The selection of excipients was further backed-up by compatibility studies and short-term stability studies of binary mixtures for key ingredients."}, "[2]": {"tested_on": "acute glaucoma-induced I/R injury", "assay": "In vivo treatment efficacy on acute glaucoma induced ischemia-reperfusion (I/R) model", "set-up": "species or system Sprague-Dawley (SD) rats", "conditions": "SD rats, oral, 7 days after I/R injury", "description": "The efficacy of compound of formula (I) is evaluated in the acute glaucoma animal model. Eight-week-old male Sprague-Dawley (SD) rats weighing 250 to 300 g are housed in a temperature- and humidity-controlled animal room under a 12-hour light/12-hour dark cycle, with food and water provided ad libitum. Before any experiment, animals are allowed for one week of acclimatization. The SD rats are randomly allocated to control group and/or treatment groups. Compound of formula (I) is administrated by oral (gavage) route. Two protocols are considered, where the treatment is initiated 24 hours before or 1 hour after the induction of acute glaucoma-induced I/R injury.\nTo induce I/R injury, a general anesthesia is induced via i.p. injection of a mixture of 50 mg/kg of ketamine and 2 mg/kg of xylazine. Corneal analgesia is administered using a drop of topical 0.5% proparacaine hydrochloride ophthalmic solution, and pupillary dilatation is maintained with 0.5% tropicamide and 0.5% phenylephrine. After analgesia and dilation of the pupil, the anterior chamber of the left eye is cannulated with a 30-gauge needle connected to a saline reservoir at 150 cm above the eye, leading to a high intraocular pressure (IOP) of 110 mm Hg. The presence of retinal ischemia is examined by the fundus. The cannulation is lasting 60 minutes. After removing the infusion needle from the anterior chamber, the IOP returns to normal. Antibiotic ophthalmic gel with tobramycin is topically applied to the eye before and after the procedure. The rats are sacrificed 7 days after I/R injury to observe the long-term effect of the compound of formula (I) treatment. After collection, the thickness of the retinas is examined by histological staining (Mayer P, (1896), Mitt. zool. Stn. Neapel., 12, 303). The number of retinal ganglion cells is also quantified by immunohistochemistry. Finally, the function of the retina is also evaluated 7 days after I/R injury by electroretinography (ERG)."}, "[3]": {"tested_on": "hTauP301L-Tg mouse model of tauopathy", "assay": "In vivo effect on the hTauP301L-Tg mouse model of tauopathy", "conditions": "hTauP301L-Tg mice", "excerpt": "Concomitant to the pathology, these mice progressively develop motoric deficits like clasping behaviour accompanied by a diminution of general mobility, and die prematurely at the age of 8-11 months (reMYND unpublished data, Terwel et al., 2005)."}, "[4]": {"tested_on": "transgenic mice (Line 61) overexpressing wildtype human alpha-synuclein", "assay": "In vivo treatment efficacy on Parkinson disease (PD) model (Line 61)", "conditions": "Line 61 mice, daily oral gavage for 24 weeks", "excerpt": "The transgenic mice (Line 61) which overexpresses wildtype human alpha-synuclein protein (hAsyn) under the regulatory control of the murine Thy-1 promoter is a widely used Parkinson disease (PD) animal model. […] In addition, motor deficits such as lack of coordination, diminution of strength, and unbalance are also observed from 2 to 4 months of age (Fleming et al. 2004, J Neurosci 24 (42): 9434-40). Treatment effect of compound of formula (I) is based on the assessment of the behaviour (motoric performance), as well as the quantification of aggregated hAsyn and pser129-Asyn deposits by histology and by the biochemical determination of aggregated hAsyn present in the brain “insoluble fraction” of treated animals.\nFor this, transgenic Line 61 mice (4 weeks of age) and age/sex-matched non-transgenic littermates are first tested in the Irwin testing battery test, rotarod, wire suspension, beam walk and pasta gnawing test at baseline. […] Right hemibrains are embedded in OCT medium and 10 μm cryosections are collected to quantify the level of hAsyn and pser129-Asyn deposits by immunohistochemistry in the hippocampus and in the cortex of treated animals. […]"}},
  "data": [
    {"compound": "CC(=O)Nc1nnc(N2CCN([C@@H](C)c3ccc4c(c3)OCO4)CC2)s1", "note": "[Compound (I)]", "values": [
      {"measurement": "stability of the drug substance", "setting": "[1]", "result": "suitably stable"},
      {"measurement": "compatibility with excipients", "setting": "[1]; capsule powder: microcrystalline cellulose, croscarmellose sodium, colloidal silicon dioxide, magnesium stearate", "result": "no incompatibility with the chosen excipients"},
      {"measurement": "number of retinal ganglion cells by immunohistochemistry", "setting": "[2]", "result": "increase number of retinal ganglion cells"},
      {"measurement": "retinal function by electroretinography", "setting": "[2]", "result": "improving retinal function"},
      {"measurement": "thickness of the retina by H&E staining", "setting": "[2]", "result": "mitigating the reduction of thickness of the retina"},
      {"measurement": "extent of neuronal pathology", "setting": "[3]", "result": "diminishing the extent of neuronal pathology"},
      {"measurement": "motoric function (clasping behaviour, beam walk)", "setting": "[3]", "result": "improvement in motoric function"},
      {"measurement": "survival rate", "setting": "[3]", "result": "significant benefit in survival rate"},
      {"measurement": "behavioural tests (Irwin battery, rotarod, wire suspension, beam walk, pasta gnawing)", "setting": "[4]", "result": "functional benefit (motor improvement)"},
      {"measurement": "intraneuronal aggregated pser129-Asyn deposits by histology", "setting": "[4]", "result": "reduction of the number of intraneuronal aggregated pser129-Asyn deposits"}
    ]}
  ]
}
